Assay results taken from ChEMBL document CHEMBL1201862, “PubChem BioAssay data set” (2004).
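Cells were grown in 96-well plates and exposed to each compound for 48 hours at five concentrations; endpoints were interpolated linearly between bracketing concentrations, or set to the highest concentration if not reached. GI50 marks 50% less growth.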 Activity calls are given as the source filed them. Cut-off read from the data, not from the text of the source: active = GI50 up to about 1.1 µM and inactive = higher.

Assays:
Assay in all cases: NCI-60 cell line screen, 48 h
SNB-19 = tested on: SNB-19
NCI-H460 = tested on: NCI-H460
UACC-62 = tested on: UACC-62
SF-295 = tested on: SF-295
CAKI-1 = tested on: CAKI-1
NCI-H522 = tested on: NCI-H522
OVCAR-3 = tested on: OVCAR-3
SK-MEL-2 = tested on: SK-MEL-2
DMS-273 = tested on: DMS-273
CCRF-CEM = tested on: CCRF-CEM
SF-268 = tested on: SF-268
KM12 = tested on: KM12
RXF 631 = tested on: RXF 631
COLO 205 = tested on: COLO 205
NCI-H23 = tested on: NCI-H23
SR = tested on: SR
IGROV-1 = tested on: IGROV-1
SK-MEL-28 = tested on: SK-MEL-28
SK-MEL-5 = tested on: SK-MEL-5
OVCAR-5 = tested on: OVCAR-5
HOP-92 = tested on: HOP-92
XF498 = tested on: XF498
U-251 = tested on: U-251
EKVX = tested on: EKVX
SF-539 = tested on: SF-539
HCC 2998 = tested on: HCC 2998
Malme-3M = tested on: Malme-3M
SW-620 = tested on: SW-620
TK-10 = tested on: TK-10
SNB-75 = tested on: SNB-75
HCT-116 = tested on: HCT-116
UACC-257 = tested on: UACC-257
DMS-114 = tested on: DMS-114
LOX IMVI = tested on: LOX IMVI
HOP-62 = tested on: HOP-62
MOLT-4 = tested on: MOLT-4
UO-31 = tested on: UO-31
ACHN = tested on: ACHN
K562 = tested on: K562
M19-MEL = tested on: M19-MEL
HT-29 = tested on: HT-29
RXF 393 = tested on: RXF 393
DLD-1 = tested on: DLD-1
HL-60 = tested on: HL-60
SK-OV-3 = tested on: SK-OV-3
NCI-H226 = tested on: NCI-H226
SNB-78 = tested on: SNB-78
RPMI-8226 = tested on: RPMI-8226
HCT-15 = tested on: HCT-15
OVCAR-4 = tested on: OVCAR-4
KM-20L2 = tested on: KM-20L2
A549 = tested on: A549
M14 = tested on: M14
786-0 = tested on: 786-0

With `CC(=O)OCC(=O)[C@@]1(O)CC[C@H]2[C@@H]3C[C@H](C)C4=CC(=O)C=C[C@]4(C)[C@@]3(F)[C@@H](O)C[C@@]21C` as the compound, how does the GI50 (SNB-19) read?
The GI50 was > 100 µM (inactive).

And the GI50 (NCI-H460)?
Its GI50 is > 100 µM (inactive).

And the GI50 (UACC-62)?
Its GI50 is 80.4 µM (inactive).

And the GI50 (SF-295)?
Its GI50 is > 100 µM (inactive).

And the GI50 (CAKI-1)?
The GI50 was > 100 µM (inactive).

What about the GI50 (NCI-H522) of the same compound?
The GI50 was > 100 µM (inactive).

And the GI50 (OVCAR-3)?
Its GI50 is > 100 µM (inactive).

And the GI50 (SK-MEL-2)?
The GI50 was > 100 µM (inactive).

What about the GI50 (DMS-273) of the same compound?
The GI50 was > 100 µM (inactive).

And the GI50 (CCRF-CEM)?
Its GI50 is 5.33 µM (inactive).

And the GI50 (SF-268)?
Its GI50 is > 100 µM (inactive).

And the GI50 (KM12)?
Its GI50 is > 100 µM (inactive).

What about the GI50 (RXF 631) of the same compound?
The GI50 was > 100 µM (inactive).

And the GI50 (COLO 205)?
The GI50 was > 100 µM (inactive).

And the GI50 (NCI-H23)?
Its GI50 is > 100 µM (inactive).

And the GI50 (SR)?
The GI50 was 96.4 µM (inactive).

And the GI50 (IGROV-1)?
The GI50 was > 100 µM (inactive).

And the GI50 (SK-MEL-28)?
Its GI50 is > 100 µM (inactive).

And the GI50 (SK-MEL-5)?
Its GI50 is > 100 µM (inactive).

And the GI50 (OVCAR-5)?
Its GI50 is 12.9 µM (inactive).

And the GI50 (HOP-92)?
Its GI50 is > 100 µM (inactive).

What about the GI50 (XF498) of the same compound?
Its GI50 is > 100 µM (inactive).

And the GI50 (U-251)?
Its GI50 is 60.4 µM (inactive).

What about the GI50 (EKVX) of the same compound?
The GI50 was > 100 µM (inactive).

What about the GI50 (SF-539) of the same compound?
Its GI50 is > 100 µM (inactive).

What about the GI50 (HCC 2998) of the same compound?
The GI50 was > 100 µM (inactive).

What about the GI50 (Malme-3M) of the same compound?
The GI50 was > 100 µM (inactive).

And the GI50 (SW-620)?
Its GI50 is > 100 µM (inactive).

And the GI50 (TK-10)?
Its GI50 is > 100 µM (inactive).

What about the GI50 (SNB-75) of the same compound?
Its GI50 is 73.8 µM (inactive).

What about the GI50 (HCT-116) of the same compound?
The GI50 was > 100 µM (inactive).

And the GI50 (UACC-257)?
The GI50 was > 100 µM (inactive).

And the GI50 (DMS-114)?
The GI50 was > 100 µM (inactive).

And the GI50 (LOX IMVI)?
The GI50 was > 100 µM (inactive).

What about the GI50 (HOP-62) of the same compound?
The GI50 was > 100 µM (inactive).

What about the GI50 (MOLT-4) of the same compound?
The GI50 was 68.7 µM (inactive).

What about the GI50 (UO-31) of the same compound?
Its GI50 is 81.1 µM (inactive).

What about the GI50 (ACHN) of the same compound?
The GI50 was > 100 µM (inactive).

And the GI50 (K562)?
The GI50 was > 100 µM (inactive).

And the GI50 (M19-MEL)?
Its GI50 is > 100 µM (inactive).

And the GI50 (HT-29)?
Its GI50 is > 100 µM (inactive).

And the GI50 (RXF 393)?
The GI50 was > 100 µM (inactive).

What about the GI50 (DLD-1) of the same compound?
Its GI50 is > 100 µM (inactive).

And the GI50 (HL-60)?
Its GI50 is > 100 µM (inactive).

What about the GI50 (SK-OV-3) of the same compound?
Its GI50 is 0.0131 µM (active).

What about the GI50 (NCI-H226) of the same compound?
The GI50 was 32.5 µM (inactive).

What about the GI50 (SNB-78) of the same compound?
The GI50 was > 100 µM (inactive).

What about the GI50 (RPMI-8226) of the same compound?
Its GI50 is 23.7 µM (inactive).

What about the GI50 (HCT-15) of the same compound?
Its GI50 is greater than 100 µM.

What about the GI50 (OVCAR-4) of the same compound?
Its GI50 is > 100 µM (inactive).

And the GI50 (KM-20L2)?
Its GI50 is > 100 µM (inactive).

And the GI50 (A549)?
Its GI50 is > 100 µM (inactive).

What about the GI50 (M14) of the same compound?
The GI50 was > 100 µM (inactive).

And the GI50 (786-0)?
Its GI50 is > 100 µM (inactive).
